This is an account of results in patent publication US20250171445A1, “DEUTERIUM-ENRICHED PIPERIDINYL-METHYL-PURINE AMINE SALTS, CRYSTALLINE FORMS, AND THEIR USE IN TREATING MEDICAL DISEASES AND CONDITIONS” (K36 Therapeutics, Inc., priority 2023, published 2025).

SMILES strings stand for the structures.

The target of the experiment is T1, recombinant human NSD2 (Homo sapiens, UniProt O96028).
T1 construct: (amino acids 2-end); His tag (N); host or cells: Sf9 insect cells
T1 sequence (O96028 2-1365 limits assumed): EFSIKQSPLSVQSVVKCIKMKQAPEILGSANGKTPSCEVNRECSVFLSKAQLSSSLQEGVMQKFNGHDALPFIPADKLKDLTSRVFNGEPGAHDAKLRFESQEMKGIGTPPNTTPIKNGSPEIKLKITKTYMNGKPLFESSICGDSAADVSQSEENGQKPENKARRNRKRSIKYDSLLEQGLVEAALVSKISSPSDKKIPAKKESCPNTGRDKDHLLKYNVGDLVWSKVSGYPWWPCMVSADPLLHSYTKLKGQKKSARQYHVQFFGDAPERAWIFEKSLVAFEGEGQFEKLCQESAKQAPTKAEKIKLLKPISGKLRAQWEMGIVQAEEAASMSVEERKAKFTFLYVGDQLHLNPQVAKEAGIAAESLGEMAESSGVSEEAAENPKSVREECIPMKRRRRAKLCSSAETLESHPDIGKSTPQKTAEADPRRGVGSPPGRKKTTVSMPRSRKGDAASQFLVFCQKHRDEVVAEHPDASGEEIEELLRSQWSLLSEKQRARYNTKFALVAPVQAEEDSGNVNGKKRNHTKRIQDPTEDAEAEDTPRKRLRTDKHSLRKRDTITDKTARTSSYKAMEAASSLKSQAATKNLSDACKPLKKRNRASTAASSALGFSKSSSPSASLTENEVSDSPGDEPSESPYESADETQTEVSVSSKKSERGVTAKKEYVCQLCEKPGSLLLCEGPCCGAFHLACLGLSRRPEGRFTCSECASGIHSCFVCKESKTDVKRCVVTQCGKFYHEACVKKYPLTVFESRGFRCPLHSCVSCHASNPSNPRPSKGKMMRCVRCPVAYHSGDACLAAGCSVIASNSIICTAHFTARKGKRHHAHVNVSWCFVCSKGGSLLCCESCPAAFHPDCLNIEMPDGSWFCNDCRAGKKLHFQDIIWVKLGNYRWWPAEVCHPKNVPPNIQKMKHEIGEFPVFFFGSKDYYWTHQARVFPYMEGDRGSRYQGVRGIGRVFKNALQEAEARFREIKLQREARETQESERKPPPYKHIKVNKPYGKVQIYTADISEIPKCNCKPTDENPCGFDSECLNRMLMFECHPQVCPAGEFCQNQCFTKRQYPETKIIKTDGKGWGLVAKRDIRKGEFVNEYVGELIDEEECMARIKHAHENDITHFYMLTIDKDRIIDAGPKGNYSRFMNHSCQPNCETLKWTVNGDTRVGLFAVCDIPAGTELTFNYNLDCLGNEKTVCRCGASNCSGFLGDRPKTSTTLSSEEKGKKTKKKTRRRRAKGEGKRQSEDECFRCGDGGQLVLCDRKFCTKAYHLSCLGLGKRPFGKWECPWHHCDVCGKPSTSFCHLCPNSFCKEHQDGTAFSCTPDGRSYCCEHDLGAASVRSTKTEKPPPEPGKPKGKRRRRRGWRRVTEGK
In words: NSD2 inhibition assay (3H-SAM histone methyltransferase, oligonucleosome substrate). It counts as biochemical. Particulars: recombinant human NSD2 (aa 2-end, His tag) 2 nM, chicken oligonucleosomes 0.05 mg/ml, 3H-SAM 1 μM, 1 hour at 30° C. As for the experimental part: The NSDS2 inhibitory activity of a compound can be evaluated using a NSD2 inhibition assay, such as the NSD2 inhibition assay described herein below.
A reaction mixture can be prepared by adding oligonucleosomes from Chicken (0.05 mg/ml) to freshly prepared reaction buffer containing 50 mM Tris-HCl (pH 8.5), 50 mM NaCl, 5 mM MgCl2, 0.01% Brij35, 1 mM DTT, and 1% DMSO followed by the addition of recombinant human NSD2, (amino acids 2-end) with N-terminal His tag (2 nM; GenBank Accession No. NM_001042424; MW=155.5 kDa; expressed in Sf9 insect cells) and gentle mixing. The test compound is diluted in DMSO, added to the reaction mixture in nanoliter amounts (using, e.g., Acoustic Technology (Echo 550, LabCyte Inc. Sunnyvale, CA)) and incubated for 20 minutes at room temperature. The reaction may be initiated by addition of S-Adenosyl-L-[methyl-3H]methionine (3H-SAM; 1 μM), and the mixture is then incubated for 1 hour at 30° C. The reaction mixture can be delivered to filter paper and the methylated substrate quantified by scintillation counting. Data analysis may be performed using Excel and GraphPad Prism software for IC50 curve fits. For additional information on the histone methyltransferase assay, see, for example, Horiuchi K Y, et al., “Assay Development for Histone Methyltransferases,” Assay Drug Dev Technol. 2013 May; 11(4):227-36.

Regarding `[2H]C([2H])([2H])Oc1cc(F)c(-c2cc(Cn3cnc4c(N)ncnc43)c(N3CCC[C@](N)([C@H](O)C(F)F)C3)cn2)cc1F`, the concentration for half-maximal inhibition (IC50) is < 10 nM.
